Test results as given in US11464824B2, “Peptide capable of improving cognitive function” (THE FOOD SCIENCE INSTITUTE FOUNDATION, priority 2018, dated 2022).

Tests used:
[1] = system: male dd Y mice fed a 60% high-fat diet; test: Spatial memory evaluation test: object location test (OLT); format: in vivo; conditions: YLG 10 mg/kg/day oral for 1 week, test on day 7, FIG. 4
Description: (§1) Four-week-old male dd Y mice were divided into 3 groups (8 mice per group). The mice were reared for 1 week such that Group 1 was fed a normal diet (3.85 kcal/g: 20 kcal % of protein, 70 kcal % of carbohydrate, and 10 kcal % of lipid), and Group 2 and Group 3 were fed a 60% high-fat diet (5.24 kcal/g: 20 kcal % of protein, 20 kcal % of carbohydrate, and 60 kcal % of lipid). During the period, the YLG tripeptide was orally administered to Group 3 daily in an amount of 10 mg/kg/day.
(§2) On day 6 and day 7 after the initiation of feeding, two behavioral tests (episodic memory evaluation test: object recognition test (ORT), and a spatial memory evaluation test: object location test (OLT)), which are known as cognitive function evaluation systems, were performed, as well as a hippocampal neurogenesis evaluation test using deoxyuridine bromide (BrdU). On day 7, the brain hippocampus was removed, and a BDNF mRNA expression level in the hippocampus was measured.
The OLT is a behavioral test that evaluates spatial memory, which is part of cognitive functions. […] The difference lies in that the location of only one object is changed in Trial 2. […] The cognitive function of the mice was evaluated using the ratio of the approach time for the object placed at the novel location to the total approach time for both objects as an index. […]

[2] = system: male dd Y mice fed a 60% high-fat diet; test: Episodic memory evaluation test: object recognition test (ORT); format: in vivo; conditions: YLG 10 mg/kg/day oral for 1 week, test on day 7, FIG. 2
Description: as §1, §2
The ORT is a behavioral test that evaluates episodic memory, which is part of cognitive functions. […] First, the mouse was placed in a square open field for 5 minutes for habituation. […] In Trial 2, the approach time of the mouse for each object was measured. […] The cognitive function of the mice was evaluated using the ratio of the approach time for the novel object to the total approach time for both objects as an index. […]

[3] = system: BrdU-positive cells in the hippocampal dentate gyrus; test: Hippocampal neurogenesis evaluation test using deoxyuridine bromide (BrdU); format: in vivo; conditions: high-fat diet mice, YLG 10 mg/kg/day oral, day 7; FIG. 5
Description: as §1, §2
On day 6 after the initiation of feeding, 100 mg/kg of deoxyuridine bromide (BrdU) was intraperitoneally administered to the mice of each group (n=4), and after 24 hours (day 7), perfusion fixation was performed using 4% paraformaldehyde. Next, the whole brain was extracted and frozen to prepare frozen sections on a cryostat. […]

[4] = reported in NPL 4; cited from earlier work
[5] = system: male dd Y mice fed a 60% high-fat diet; test: Insulin tolerance test; format: in vivo; conditions: YLG 10 mg/kg/day oral; for blood glucose level in the insulin tolerance test (relative value, level immediately before insulin = 100): day 7
Description: As in the glucose tolerance test, twelve-week-old male dd Y mice were divided into 3 groups (n=6-7), and the mice were reared for 1 week such that Group 1 was fed a normal diet, and Group 2 and Group 3 were fed a 60% high-fat diet. During the period, the YLG peptide was orally administered to Group 3 daily in an amount of 10 mg/kg/day. On day 7 after the initiation of feeding, insulin (0.5 U/kg/i.p.) was administered after fasting for 5 hours. The administration of the YLG peptide on day 7 was performed 2 hours before the insulin administration. Blood was collected from the tail vein immediately before insulin administration, and 15 minutes, 30 minutes, and 60 minutes after the administration to measure the blood glucose level using a glucose sensor (Nipro Corporation).
(§3) Tables 1 and 2 show changes in blood glucose level in the glucose tolerance test and changes in blood glucose level in the insulin tolerance test, respectively. The numerical values shown in each table are relative values, taking the blood glucose level immediately before the administration of glucose or insulin as 100.

[6] = system: male dd Y mice fed a 60% high-fat diet; test: Glucose tolerance test; format: in vivo; conditions: YLG 10 mg/kg/day oral; for blood glucose level in the glucose tolerance test (relative value, level immediately before glucose = 100): day 7
Description: as §1, with “Twelve-week-old” for “Four-week-old”, “(n=8).” for “(8 mice per group).”, “peptide” for “tripeptide”
On day 7 after the initiation of feeding, glucose (2 g/kg/p.o.) was administered after fasting for 5 hours. The administration of the YLG peptide on day 7 was performed 2 hours before the glucose administration. Blood was collected from the tail vein immediately before the glucose administration, and 15 minutes, 30 minutes, and 60 minutes after the administration to measure the blood glucose level using a glucose sensor (Nipro Corporation).
as §3

[7] = system: BDNF mRNA expression in the hippocampus; test: Brain-derived neurotrophic factor (BDNF) mRNA expression measurement test; format: in vivo; conditions: high-fat diet mice, YLG 10 mg/kg/day oral, day 7, RT-PCR, standardized with β-actin mRNA; FIG. 6
Description: as §1, §2
On day 7 after the initiation of feeding, the mice in each group (n=8) were dissected under anesthesia, and the hippocampus was removed from the brain. The removed hippocampus was stored in RNA later for RNA extraction. […] Then, the brain-derived neurotrophic factor (BDNF) mRNA expression level in the hippocampus was measured by RT-PCR according to a standard method. […]

## Tyr-Leu-Gly [YLG peptide]
[1]
  ratio of the approach time for the object placed at the novel location to the total approach time for both objects (OLT, spatial memory): recovered to a level equal to that of the normal diet group
[2]
  ratio of the approach time for the novel object to the total approach time for both objects (ORT, episodic memory): recovered to a level equal to that of the normal diet group
[3]
  number of BrdU-positive cells in the hippocampal dentate gyrus (hippocampal neurogenesis): recovered to a level equal to that of the normal diet group
[4]
  anxiolytic effect: anxiolytic effect
[5]; 15 min after insulin 0.5 U/kg i.p.
  blood glucose level in the insulin tolerance test (relative value, level immediately before insulin = 100): 90 ± 2
[5]; 30 min after insulin 0.5 U/kg i.p.
  blood glucose level in the insulin tolerance test (relative value, level immediately before insulin = 100): 78 ± 3
[5]; 60 min after insulin 0.5 U/kg i.p.
  blood glucose level in the insulin tolerance test (relative value, level immediately before insulin = 100): 70 ± 4
[5]
  effect on insulin resistance induced by the high-fat diet (glucose and insulin tolerance tests, in words): improved insulin resistance induced by the high-fat diet
[6]; 15 min after glucose 2 g/kg p.o.
  blood glucose level in the glucose tolerance test (relative value, level immediately before glucose = 100): 190 ± 14
[6]; 30 min after glucose 2 g/kg p.o.
  blood glucose level in the glucose tolerance test (relative value, level immediately before glucose = 100): 169 ± 10
[6]; 60 min after glucose 2 g/kg p.o.
  blood glucose level in the glucose tolerance test (relative value, level immediately before glucose = 100): 113 ± 5
[6]
  effect on the increase in blood glucose level caused by high-fat diet intake (glucose tolerance test, in words): prevented the increase in blood glucose level
[7]
  BDNF mRNA expression level in the hippocampus: recovered to a level equal to or even greater than that of the normal diet group
